Data from patent publication US20050208549A1, “Testing endosymbiont cellular organelles and compounds identifiable therewith” (priority 2000, published 2005).

What was measured:
[1] = Peripheral atrophy, Lipodystrophy; d4T > others; cited from earlier work
[2] = tested on: peripheral blood mononuclear cells (PBMCs); assay: NASBA ratio of mitochondrial RNA to chromosome-encoded RNA in cultured PBMCs; format: cell-based, human (healthy blood donor); settings: culture period of five days, 6 μM and 60 μM
Method: (§1) In Table 1, the primers and probes used in the examples are summarized. Standard NASBA nucleic acid amplification reactions were performed in a 20 μl reaction volume and contained: 40 mM Tris-pH 8.5, 70 mM KCl, 12 mM MgCl2, 5 mM dithiothreitol, 1 mM dNTPs (each), 2 mM rNTPs (each), 0.2 μM primer (each), 0.05 μM molecular beacon, 375 mM sorbitol, 0.105 μg/μl bovine serum albumin, 6.4 units AMV RT, 32 units T7 RNA polymerase, 0.08 units RNAse H and input nucleic acid. The complete mixture, except the enzymes, sorbitol and/or bovine serum albumin was, prior to adding the enzyme mixture, heated to 65° C. for two minutes in order to denature any secondary structure in the RNA and to allow the primers to anneal. After cooling the mixture to 41° C., the enzymes were added. The amplification took place at 41° C. for 90 minutes in a fluorimeter (CytoFluor 2000) and the fluorescent signal was measured every minute (using the filter set 530/25 nm and 485/30 nm). For amplification of DNA target sequences, the 65° C. denaturation step was replaced with a 95° C. denaturation step for two to five minutes.
(§2) To achieve quantification, a dilution series of target sequences for a particular primer set was amplified and the time points at which the reactions became positive (the time to positivity, TTP) were plotted against the input amounts of nucleic acid. This way a calibration curve was created that could be used to read TTP values of reactions with unknown amounts of input and deduce the input amount.
Cells (fibroblasts and PBMCs) were cultured under standard conditions in standard media known to persons skilled in the art with the addition of drugs or putative toxic or stimulating compounds as defined in the examples. […] A small aliquot of the isolated nucleic acid was analyzed on an agarose gel and the remainder stored at −80° C. until further analysis. […]

Fibroblast cells [3] = assay: NASBA ratio of mitochondrial RNA to chromosome-encoded RNA in cultured fibroblast cells; format: cell-based; settings: culture period of four weeks, antiviral drugs at 3 μM and 30 μM
Method: as §1, with “For amplification of DNA target sequences, the 65° C. denaturation step was replaced with a 95° C. denaturation step for two to five minutes.” left out
as §2, with “amount. […]” for “amount.”

Fibroblast cells [4] = assay: NASBA ratio of mitochondrial RNA to chromosomal DNA in cultured fibroblast cells; format: cell-based; settings: culture period of four weeks, antiviral drugs at 3 μM and 30 μM
Method: as §1, with “For amplification of DNA target sequences, the 65° C. denaturation step was replaced with a 95° C. denaturation step for two to five minutes.” left out
as §2, with “amount. […]” for “amount.”

Fibroblast cells [5] = assay: NASBA ratio of chromosome-encoded RNA to chromosomal DNA in cultured fibroblast cells; format: cell-based; settings: culture period of four weeks, antiviral drugs at 3 μM and 30 μM
Method: as §1, with “For amplification of DNA target sequences, the 65° C. denaturation step was replaced with a 95° C. denaturation step for two to five minutes.” left out
as §2, with “amount. […]” for “amount.”

Fibroblast cells [6] = assay: NASBA ratio of mitochondrial DNA to chromosomal DNA in cultured fibroblast cells; format: cell-based; settings: culture period of four weeks, antiviral drugs at 3 μM and 30 μM
Method: as §1, with “For amplification of DNA target sequences, the 65° C. denaturation step was replaced with a 95° C. denaturation step for two to five minutes.” left out
as §2, with “amount. […]” for “amount.”

Fibroblast cells [7] = assay: NASBA ratio of mitochondrial RNA to mitochondrial DNA in cultured fibroblast cells; format: cell-based; settings: culture period of four weeks, antiviral drugs at 3 μM and 30 μM
Method: as §1, with “For amplification of DNA target sequences, the 65° C. denaturation step was replaced with a 95° C. denaturation step for two to five minutes.” left out
as §2, with “amount. […]” for “amount.”

Compound	Rate (%) of mitochondrial toxicity, affected organ Fat [1] [%]	change in ratio of mitochondrial RNA to chromosome-encoded RNA [2]	change in mitochondrial RNA to chromosome-encoded RNA ratio (Fibroblast cells [3])	change in mitochondrial RNA to chromosomal DNA ratio (Fibroblast cells [4])	change in ratio of chromosome-encoded RNA and chromosomal DNA (Fibroblast cells [5])	change in mitochondrial DNA to chromosomal DNA ratio (Fibroblast cells [6])	change in mitochondrial RNA to mitochondrial DNA ratio (Fibroblast cells [7])
Cc1cn([C@H]2C=C[C@@H](CO)O2)c(=O)[nH]c1=O [D4T]	50	no measurable change					
CC[n+]1c(-c2ccccc2)c2cc(N)ccc2c2ccc(N)cc21 [ethidium bromide]			decline in mitochondrial RNA content	decline in mitochondrial RNA content	no measurable change	decline in mitochondrial DNA content	decline in mitochondrial RNA and DNA content
